In patent US7858738B2, “Synthetic human peptides and pharmaceutical compositions comprising them for the treatment of systemic lupus erythematosus” (Yeda Research and Development Co., Ltd., priority 2001, dated 2010):

How the values were obtained:
[1] = tested on: PBL of SLE patients; experiment: Proliferative response of PBL of SLE patients to the human 16/6Id mAb; type: cell-based; details: PBL of one SLE patient
Procedure: (§1) Induction and treatment of experimental SLE. In order to induce experimental SLE, BALB/c mice were immunized with 1-2 μg of the human mAb 16/6Id and boosted 3 weeks later. For the prevention of experimental SLE, mice were given hCDR1 or hCDR3 (mCDR1 or revmCDR1 as control peptide in Example 12) intravenously (i.v.) or s.c. concomitant with the immunization, and were injected weekly thereafter for 5 weeks. Treatment of an established disease started three and a half months following disease induction with the 16/6Id, when clinical manifestations were already observed. In Example 12, mice received 10 weekly injections (i.v. or s.c.) of mCDR1 or revmCDR1 at a dose of 100 μg/mouse. Prevention and treatment of SLE-like disease in (NZB×NZW)F1 mice with the hCDR1 or mCDR1 peptide. For prevention of SLE, mice at the age of 2 months, before disease manifestations are observed, were injected s.c. with hCDR1 (or mCDR1 in Example 12, 250 μg/mouse) once a week for 10 weeks. To treat an established disease, mice at the age of 5-7 months were injected with hCDR1 (in Example 12, mCDR1 s.c., 250 μg/mouse) once a week for 10 weeks. Proliferative Responses. PBL were isolated from heparinized venous blood by Ficoll-Hypaque (Pharmacia) density-gradient centrifugation. All assays were performed, in triplicate, in flat-bottomed microtiter plates (Falcon, Becton Dickinson, Oxmard, Calif., USA) in which 2×10^5 PBL were cultured in enriched RPMI-1640 as described (Dayan et al., 2000). The PBL were exposed to various concentrations (0.1-40 μg/well) of the human anti-DNA 16/6Id mAb with and without the addition of the various CDR-based peptides at a concentration of at least 10-fold excess over that of the 16/6Id. Phytohemagglutinin (PHA; 2 μg/well) was used as a control for culture conditions at each experiment. The cultures were incubated in 7.5% CO2 at 37° C. for 6 days. Eighteen hours before the cells were harvested, [^3H]-thymidine (0.5μ Ci of 5 Ci/mmol) (Nuclear Research Center, Negev, Israel) was added to all cultures. Results are expressed as the mean thymidine incorporation in counts per minute (CPM) of triplicate culture±SD, or as stimulation index (S.I.; the ratio of mean CPM at the optimal concentration of the human 16/6Id to the mean CPM in the presence of medium alone). A S.I.≧2 was considered a positive response (Dayan et al., 2000). Inhibition (the ratio of mean CPM in the presence of the 16/6Id and various CDR-based peptides to the mean CPM with the 16/6Id without the CDR-based peptide) above 50% was considered positive. Induction of Cytokine Production. Mice that were immunized with the human 16/6Id mAb and either treated or not with the CDR-based peptide, were killed at different periods during or after treatment with the peptide. Splenocytes and lymph node cells (LNC) were harvested and incubated (5×10^6/ml) in the presence of the 16/6Id. Supernatants were collected after 48 and 72 h. Assessment of Cytokines in the Supernatants. Supernatants were collected 48 hours following the initiation of the cultures and stored at −70° C. Measurements of IL-2, IL-10, IFN-γ, and TNF-α were performed by ELISA by using the relevant standards, capture and detecting Abs (Pharmingen) according to the manufacturer's instructions. TGF-β was determined by an ELISA. Briefly, plates were coated with the recombinant human TGF-β1 sRIII/Fc chimera (R & D Systems Inc., Minneapolis, Minn., USA), and the second Ab used was the biotinylated anti-human TGF-β1 antibody (R & D Systems Inc.). The substrate solution used was TMB color Reagent (Helix Diagnostics, West Sacramento, Calif.), and enzyme activity was evaluated by using 570- and 630-nm filters. Detection of SLE-Associated Clinical and Pathological Manifestations. Proteinuria was measured semiquantitatively by using Combistix kit (Ames Division, Bayer Diagnostics, Newbury, U.K.). White blood cells (WBC, for leukopenia) were counted after a 10-fold dilution of heparinized blood in distilled water containing 1% acetic acid (vol/vol). […]

[2] = tested on: SLE prone mice (NZB×NZW) F1 or MRL/lpr/lpr; details: Eilat et al., 2000 and 2001; cited from earlier work
[3] = tested on: MMP-3; experiment: MMP-3 immunostaining of kidney sections of 16/6Id immunized BALB/c mice; type: in vivo; details: prevention and treatment experiments; glomeruli and interstitium; FIG. 22
Procedure: (§2) Induction and treatment of experimental SLE. In order to induce experimental SLE, BALB/c mice were immunized with 1-2 μg of the human mAb 16/6Id and boosted 3 weeks later. For the prevention of experimental SLE, mice were given hCDR1 or hCDR3 (mCDR1 or revmCDR1 as control peptide in Example 12) intravenously (i.v.) or s.c. concomitant with the immunization, and were injected weekly thereafter for 5 weeks. Treatment of an established disease started three and a half months following disease induction with the 16/6Id, when clinical manifestations were already observed. In Example 12, mice received 10 weekly injections (i.v. or s.c.) of mCDR1 or revmCDR1 at a dose of 100 μg/mouse. Prevention and treatment of SLE-like disease in (NZB×NZW)F1 mice with the hCDR1 or mCDR1 peptide. […] Results are expressed as the mean thymidine incorporation in counts per minute (CPM) of triplicate culture±SD, or as stimulation index (S.I.; the ratio of mean CPM at the optimal concentration of the human 16/6Id to the mean CPM in the presence of medium alone). […] TGF-β was determined by an ELISA. […] The substrate solution used was TMB color Reagent (Helix Diagnostics, West Sacramento, Calif.), and enzyme activity was evaluated by using 570- and 630-nm filters. […] Proteinuria was measured semiquantitatively by using Combistix kit (Ames Division, Bayer Diagnostics, Newbury, U.K.). […]

[4] = tested on: T cell priming; details: administered in PBS; Waisman et al., 1997; cited from earlier work
[5] = tested on: MMP-9; experiment: MMP-9 activity in sera of 16/6Id immunized BALB/c mice; type: in vivo
Procedure: as §2, with “peptide. For prevention of SLE, mice at the age of 2 months, before disease manifestations are observed, were injected s.c. with hCDR1 (or mCDR1 in Example 12, 250 μg/mouse) once a week for 10 weeks. To treat an established disease, mice at the age of 5-7 months were injected with hCDR1 (in Example 12, mCDR1 s.c., 250 μg/mouse) once a week for 10 weeks. Proliferative Responses. PBL were isolated from heparinized venous blood by Ficoll-Hypaque (Pharmacia) density-gradient centrifugation.” for “peptide.”, “U.K.). White blood cells (WBC, for leukopenia) were counted after a 10-fold dilution of heparinized blood in distilled water containing 1% acetic acid (vol/vol).” for “U.K.).”

[6] = tested on: MMP-3; experiment: MMP-3 levels in sera of 16/6Id immunized BALB/c mice (Western blot); type: in vivo; details: prevention and treatment protocols, 100 μg/mouse; FIG. 21A
Procedure: as §2

[7] = tested on: MMP-3; experiment: MMP-3 levels in sera of (NZB×NZW)F1 mice (Western blot); type: in vivo
Procedure: as §2, with “peptide. For prevention of SLE, mice at the age of 2 months, before disease manifestations are observed, were injected s.c. with hCDR1 (or mCDR1 in Example 12, 250 μg/mouse) once a week for 10 weeks. To treat an established disease, mice at the age of 5-7 months were injected with hCDR1 (in Example 12, mCDR1 s.c., 250 μg/mouse) once a week for 10 weeks. Proliferative Responses. PBL were isolated from heparinized venous blood by Ficoll-Hypaque (Pharmacia) density-gradient centrifugation.” for “peptide.”, “U.K.). White blood cells (WBC, for leukopenia) were counted after a 10-fold dilution of heparinized blood in distilled water containing 1% acetic acid (vol/vol).” for “U.K.).”

[8] = tested on: MMP-9; experiment: MMP-9 activity in sera of (NZB×NZW)F1 mice (gel zymography); type: in vivo
Procedure: as §1, with “A S.I.≧2 was considered a positive response (Dayan et al., 2000). Inhibition (the ratio of mean CPM in the presence of the 16/6Id and various CDR-based peptides to the mean CPM with the 16/6Id without the CDR-based peptide) above 50% was considered positive. Induction of Cytokine Production. Mice that were immunized with the human 16/6Id mAb and either treated or not with the CDR-based peptide, were killed at different periods during or after treatment with the peptide. Splenocytes and lymph node cells (LNC) were harvested and incubated (5×10^6/ml) in the presence of the 16/6Id. Supernatants were collected after 48 and 72 h. Assessment of Cytokines in the Supernatants. Supernatants were collected 48 hours following the initiation of the cultures and stored at −70° C. Measurements of IL-2, IL-10, IFN-γ, and TNF-α were performed by ELISA by using the relevant standards, capture and detecting Abs (Pharmingen) according to the manufacturer's instructions.” left out, “Briefly, plates were coated with the recombinant human TGF-β1 sRIII/Fc chimera (R & D Systems Inc., Minneapolis, Minn., USA), and the second Ab used was the biotinylated anti-human TGF-β1 antibody (R & D Systems Inc.).” left out, “Detection of SLE-Associated Clinical and Pathological Manifestations.” left out

[9] = tested on: MMP-9; experiment: MMP-9 immunostaining of kidney sections of 16/6Id immunized BALB/c mice; type: in vivo; details: prevention and treatment experiments; glomeruli and interstitium; FIG. 22
Procedure: as §2

Row | Sequence | inhibition of the proliferative responses of PBL to human 16/6Id mAb ([1]; FIG. 7, reversed murine peptides as controls) | prevention or treatment of SLE induced by human 16/6Id mAb or spontaneous [2] | expression levels of MMP-3 in the kidneys [3] | T cell priming to the appropriate mCDR peptide or to the whole anti-DNA 16/6Id mAb [4] | activity of sera comparable to pure active MMP-9 ([5]; MMP-9 activity assay system, preliminary, unimmunized 7 ng/ml, 16/6Id immunized 16 ng/ml) [ng/mL] | MMP-9 activity in sera ([5]; prevention and treatment protocols, 100 μg/mouse, FIG. 21B) | levels of MMP-3 in sera [6] | two lower bands of MMP-3 in the serum ([7]; prevention protocol: 250 μg/mouse s.c. weekly for 10 weeks from age 2 months, FIG. 20A) | levels of MMP-3 in the sera ([7]; treatment of sick mice, FIG. 20A right) | MMP-9 activity in the serum ([8]; prevention protocol: 250 μg/mouse s.c. weekly for 10 weeks from age 2 months, FIG. 20B) | activity of MMP-9 in the sera ([8]; treatment of sick mice, FIG. 20B right) | expression levels of MMP-9 in the kidneys [9] | inhibition of the proliferative responses of PBL to the human 16/6Id mAb ([1]; FIG. 6)
1 | SGQGWYDMAYPEWLFRACYY (Synthetic peptide prepared in reversed order of SEQ ID NO 3.) [revmCDR3, control peptide synthesized in the reversed order of mCDR3, reference compound] | failed to inhibit significantly |  |  |  |  |  |  |  |  |  |  |  | 
2 | TGYYMQWVKQSPEKSLEWIG [mCDR1] |  | either prevent or treat an already established SLE | down-regulated | inhibiting T cell priming | 8.5 | could down regulate | could down regulate | reduction | specifically down-regulated | reduction | specifically down-regulated | down-regulated | 
3 | YYCARFLWEPYAMDYWGQGS (Murine) [mCDR3, murine peptide based on CDR3 of the VH chain of murine mAb 5G12] |  | either prevent or treat an already established SLE |  | inhibiting T cell priming |  |  |  |  |  |  |  |  | did not inhibit
